What all share (test): NCI tumour cell line growth inhibition, 48 h
The test system of test [1] is DMS 114 small cell lung.
In test [2] the test system is P388 leukemia.
Test [3] deals with XF 498 CNS.
The test system of test [4] is SNB-78 CNS.
Test [5] concerns P388/ADR leukemia.
The test system of test [6] is DLD-1 colon.
For test [7], the system named is M19-MEL melanoma.
The test system of test [8] is SN12K1 renal.
Test [9] relates to DMS 273 small cell lung.
Test [10] concerns HOP-18 NSCLC.
Test [11] concerns LXFL 529 NSCLC.
Test [12] relates to RXF-631 renal.

Values joined by “and” are separate entries in the source; they are usually repeats but may differ in a detail not shown here. Identical values can stand only once.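 Growth conditions: 96-well plates. Treatment: test compound, 48 hours, 5 concentrations. Analysis: linear interpolation between bracketing concentrations; unreached endpoints set to highest concentration. The concentration for 50% growth inhibition is given as GI50. TGI is the concentration that stops growth completely.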

In the case of `CSCSCC(CO)NC(=O)/C=C\c1c(C)[nH]c(=O)[nH]c1=O` (stereo not drawn), the TGI in test [1] amounted to 66.5 µM; in test [2] it was 164 µM; in test [3], 9.99 µM; in test [4], 260 µM; in [5] it was 332 µM; in [6] it was 160 µM. For the same compound, the TGI in test [7] is 111 µM; in test [8], 84.9 µM; in test [9] it was 267 µM; in test [10], 267 µM. Moreover, in [4], the GI50 is 30.9 µM.

Take `O=C(O)C12C=CC(C1)c1ccccc12` (stereo not drawn): the TGI in test [1], in test [6], in test [7], in test [11], in test [9] and in [10] was more than 100 µM in each case.

Regarding `CCCCn1c(-c2ccccc2)cs/c1=N\NC(=O)Cn1c(C)nc2ccccc21`, the TGI in test [3], in [4], in [6], in [7], in [11] and in test [9] was more than 100 µM each time. The TGI in test [10] is more than 100 µM.

Take `Cc1c2cc[n+](C)cc2c(C)c2c1[nH]c1ccc(OCC(F)(F)F)cc12`: the TGI in test [1] is more than 21.6 µM; in test [4], more than 100 µM; in test [6], more than 100 µM; in test [7] it was more than 24.5 µM; in [11] it was 6.5 µM; in [9] it was > 31.7 µM and 30.9 µM. The TGI in test [10] is 23.4 µM and > 100 µM.

With `C/C(N=NS(=O)(=O)c1c(C)cc(C)cc1C)=C1\C=CC=CN1O`, the TGI in [1], in [3], in test [4], in test [6], in [7] and in test [11] was more than 100 µM throughout. The TGI in test [9] and in test [10] was more than 100 µM each time.

Turning to `C=C1C(=O)OC2C[C@@]3(C)CCCC(=C)C3CC12` (stereo partly drawn), the TGI in test [1] was found to be 29.8 µM; in test [3], 13.5 µM; in [4], 13.5 µM; in [6], 14.7 µM; in test [11], 11.8 µM; in test [9] it was 10.7 µM. In addition, in test [10], the TGI was found to be 31.3 µM.

Regarding `O=c1[nH]c(=S)[nH]c2c1CCCN2`, the TGI in test [1], in test [4], in [6], in [7], in test [11] and in test [12] was more than 100 µM each time. In [10], this compound gave a TGI of more than 100 µM.

`NCCCNCCSP(=O)(O)O`: the TGI in test [1] was more than 750 µM; in test [2], more than 750 µM; in test [3] it was more than 422 µM; in [4], more than 750 µM; in [5], more than 750 µM; in test [6], more than 750 µM. For the same compound, the TGI in test [7], in [8], in [9] and in test [10] was more than 750 µM in each case.

For `O=Cn1c2ccccc2c2ccccc21`, the TGI in [1], in test [3], in test [4], in test [6], in test [7] and in test [11] was more than 100 µM each time. Besides, the TGI in [9] and in test [10] was more than 100 µM throughout.

Regarding `CCN(CC)CC[n+]1ccc2c(C)c3[nH]c4ccccc4c3c(C)c2c1`, the GI50 was 0.0448 µM and 0.024 µM in test [2]; 0.293 µM and 1.17 µM in [4]; 0.268 µM in test [8]; 0.901 µM and 1.91 µM in test [10]. Further, the TGI in test [2] was 1.41 µM and 4.27 µM; in [4] it was 1.49 µM and 7.14 µM; in [5], > 100 µM and 125 µM; in test [6], 13.5 µM and 14.6 µM; in [7], 0.762 µM and 2 µM; in [8] it was 1.18 µM and 1.8 µM. For the same compound, the TGI in [9] was 1.53 µM and 1.74 µM; in test [10], 4.82 µM and 7.88 µM.

Turning to `c1ccc(C2N=C(c3ccccn3)C(c3ccccn3)=NC2c2ccccc2)cc1` (stereo not drawn), the TGI in test [1], in test [3], in test [4], in test [6], in test [7] and in test [11] was more than 100 µM each time. Also, the TGI in [9] and in [10] was more than 100 µM throughout.

On to `CC(C)=CC(=O)OC1C2C(C)=CC(=O)C(O)C2(C)C2C3(O)OCC24C(CC(=O)OC14)C(C)C3O` (stereo not drawn), for which the TGI is 0.00568 µM in test [2]; 0.0217 µM and 0.0556 µM in test [3]; 0.36 µM and 0.153 µM in test [4]; 0.575 µM and 0.84 µM in test [5]; 0.221 µM and 0.554 µM in test [6]; 0.0252 µM and 0.027 µM in test [7]. Further, the TGI in test [8] was 0.0169 µM and 0.0213 µM; in test [9], 0.0122 µM and 0.0241 µM; in test [10], 0.689 µM and 0.493 µM. The GI50 in test [3] is 0.00543 µM; in [4], 0.0575 µM; in [5], 0.181 µM; in test [8] it was 0.00412 µM; in test [9], 0.02 µM; in test [10] it was 0.192 µM and 0.0777 µM.

Consider `COC(=O)c1c(CC(=O)OC(C)C)cc2n(c1=O)Cc1c-2nc2ccccc2c1OC`, for which the TGI in [1], in [3], in test [6], in test [7], in test [11] and in [9] was more than 100 µM in each case. This compound came in with a TGI in [10] of more than 100 µM.

The values above are taken from PubChem BioAssay (NCI).
